# Measurements reported in patent publication US6420375B1, “Fused ring compounds, process for producing the same and use thereof” (Takeda Chemical Industries, Ltd., priority 1997, dated 2002).
# Target: T1, rat steroid C17-20-lyase (Rattus norvegicus, UniProt P11715)
# T1 construct: testicular microsomes were prepared by a series of centrifugation; from tissue; host or cells: testicular microsomes from 13-week old male SD rats
# T1 sequence (P11715 1-507): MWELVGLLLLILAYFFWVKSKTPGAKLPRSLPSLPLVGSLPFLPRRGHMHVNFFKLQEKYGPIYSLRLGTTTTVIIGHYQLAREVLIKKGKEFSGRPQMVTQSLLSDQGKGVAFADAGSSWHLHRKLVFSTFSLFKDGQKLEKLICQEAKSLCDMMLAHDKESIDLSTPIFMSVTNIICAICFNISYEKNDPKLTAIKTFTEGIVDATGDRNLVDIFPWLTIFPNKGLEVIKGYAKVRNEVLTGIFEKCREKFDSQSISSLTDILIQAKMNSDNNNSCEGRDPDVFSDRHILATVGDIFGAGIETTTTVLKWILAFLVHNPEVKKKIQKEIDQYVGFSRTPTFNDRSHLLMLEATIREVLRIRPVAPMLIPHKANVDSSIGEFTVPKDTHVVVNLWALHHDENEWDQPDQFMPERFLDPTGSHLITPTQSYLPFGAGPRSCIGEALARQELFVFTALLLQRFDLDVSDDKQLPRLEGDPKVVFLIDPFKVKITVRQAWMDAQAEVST
# Assay: Assay of inhibitory activity on rat steroid C17-20-lyase in vitro
# Format: biochemical
# Settings: testicular microsomes of male SD rats; 10 nM [1,2-3H]-17α-hydroxyprogesterone, NADPH; 7 min at 37° C.; concentration reducing products (testosterone and androstenedione) by 50%
# Procedure: Assay of inhibitory activity on rat steroid C17-20-lyase in vitro
# Inhibitory activity was determined according to the method described in The Prostate, vol.26, 140-150(1995) with some modifications.
# Testes excised from 13-week old, male SD rats were homogenized, and testicular microsomes were prepared by a series of centrifugation. The microsome protein (7 μg/10 μl) was added to 10 μl of 100 mM phosphate buffer (pH 7.4) in which 10 nM (final concentration) [1,2-^3H]-17α-hydroxyprogesterone, NADPH, and test compounds were dissolved. The reaction mixture was incubated for 7 min at 37° C., terminated by addition of 40 μl of Ethyl acetate, and briefly centrifuged. The substrate and the products (testosterone and androstenedione) in the upper phase were separated by silica gel thin layer chromatography. Detection of the spots and measurement of the radioactivity were performed by a BAS 2000 Bioimage analyzer. The concentration of the test compounds necessary to reduce the concentration of the products by 50% (The concentration in the control group in which no test compound was added was taken as 100%) was calculated, and shown in Table 1.
row,Compound,IC50
1,C(=C\c1ccc2ccccc2c1)/Cn1ccnc1,26 nM
2,C(=C\c1ccc2ccccc2c1)/Cc1cccnc1,100 nM
3,C(=C\c1ccc2c(c1)CCCC2)/c1ccncc1,190 nM
4,C/C(=C\Cn1ccnc1)c1ccc2c(c1)CCCC2,28 nM

# These reach a lower IC50. Values come first.
row,IC50,Compound
1,20 nM,C/C(=C\c1ccc2ccccc2c1)Cn1ccnc1
2,13 nM,C/C(=C\Cn1ccnc1)c1ccc2ccccc2c1
